Test results: patent US5684026A, “Aminocyclopentane derivative” (priority 1994, dated 1997)

Experiments:
Assay type in all cases: biochemical
[1] = molecular target: T1, α-Glucosidase (Baker's yeast, EC 3.2.1.20) (Saccharomyces cerevisiae, UniProt P53341); assay: α-Glucosidase enzyme inhibition assay (p-nitrophenyl α-D-glucopyranoside); details: compared with deoxynojirimycin; summary of Tables 1 and 2
T1 construct: purchased Sigma; host or cells: Baker's yeast
Experimental: (§1) By using a 96-well microplate, the absorbance (at 405 nm) of liberated p- or o-nitrophenol was measured with a microplate reader (MPR-4Ai, manufactured by Tosoh Corporation).
(§2) Incubation was carried out at 37° C. by using a natural incubator (Compact NIB-10, manufactured by Iwaki Glass Co., Ltd.).
(§3) The enzymes employed herein [α-glucosidase (Baker's yeast), β-glucosidase (Almonds), α-galactosidase (E. coli), β-galactosidase (E. coli) and β-galactosidase (Bovine Liver)] were all purchased from Sigma.
(§4) The substrates (p- or o-nitrophenylglycoside) of these enzymes were all purchased from Sigma.
1) α-Glucosidase (Baker's yeast, EC 3.2.1.20) [described in H. Halvorson and L. Ellias, Biochim. Biophys. Acta, 30, 28-40 (1958)]
Into each well were introduced an aqueous solution of a sample (1 μl), a 0.66 mM solution of p-nitrophenyl α-D-glucopyranoside in a buffer (98 μl) and a (0.4 mg/ml) enzyme solution in the buffer (1 μl) to give a total volume of 100 μl. After incubating at 37° C. for 30 minutes, the reaction was ceased by adding a 1M aqueous solution of sodium carbonate (100 μl). Then the absorbance (A405) of p-nitrophenol liberated by this enzyme reaction was measured. To give the blank absorbance (Ablank), the sample (1 μl) and the substrate (99 μl) were incubated in the same manner and an aqueous solution of sodium carbonate (100 μl) was added followed by the measurement of the absorbance. […] The sample at each concentration, the blank and the control were treated each in two wells at the same time. As the buffer, a 0.1M phosphate buffer solution (pH 6.8, prepared from KH2 PO4 and K2 HPO4) was employed.

[2] = molecular target: β-Glucosidase (Almonds, EC 3.2.1.21); assay: β-Glucosidase enzyme inhibition assay (p-nitrophenyl β-D-glucopyranoside)
Experimental: as §1, §2, §3, §4
2) β-Glucosidase (Almonds, EC 3.2.1.21) [described in A. Kobayashi, Agr. Biol. Chem., 26, 203-207 (1962)]
Into each well were introduced an aqueous solution of a sample (1 μl), a 0.33 mM solution of p-nitrophenyl β-D-glucopyranoside in a buffer (98 μl) and a (0.4 mg/ml) enzyme solution in the buffer (1 μl) to give a total volume of 100 μl. After incubating at 37° C. for 45 minutes, the reaction was ceased by adding a 1M aqueous solution of sodium carbonate (100 μl). Then the absorbance (A405) of p-nitrophenol liberated by this enzyme reaction was measured. To give the blank absorbance (Ablank), the sample (1 μl) and the substrate (99 μl) were incubated in the same manner and an aqueous solution of sodium carbonate (100 μl) was added followed by the measurement of the absorbance. […] As the buffer, a 0.1M acetate buffer solution (pH 5.0, prepared from NaOAc and AcOH) was employed. The IC50 was determined in the same manner as employed in the case of α-glucosidase.

[3] = test system: α-Galactosidase (E. Coli, EC. 3.2.1.22); assay: α-Galactosidase enzyme inhibition assay (p-nitrophenyl α-D-galactopyranoside); details: pH 6.5, room temperature, 15 minutes
Experimental: as §1, §3, §4
3) α-Galactosidase (E. Coli, EC. 3.2.1.22) [described in H. Suzuki, S-C. Li and Y-T. Li, J. Biol. Chem., 245, 781-786 (1970)]
Into each well were introduced an aqueous solution of a sample (1 μl), a buffer (74 μl), a 9.9 mM solution of p-nitrophenyl α-D-galactopyranoside in a buffer (20 μl) and a (50 μg/ml) enzyme solution in the buffer (5 μl) to give a total volume of 100 μl. After incubating the resulting mixture at room temperature (20°-30° C.) for 15 minutes, the reaction was ceased by adding a 0.2M borate buffer solution (pH 9.8, prepared from NaOH and H3 BO3, 100 μl). Then the absorbance (A405) of p-nitrophenol liberated by this enzyme reaction was measured. To give the blank absorbance (Ablank), the sample (1 μl), the substrate (20 μl) and the buffer solution (79 μl) were incubated in the same manner and the 0.2M borate buffer solution (100 μl) was added followed by the measurement of the absorbance. To give the control absorbance ([…]), on the other hand, water (1 μl), the substrate (20 μl), the buffer solution (74 μl) and the enzyme solution (5 μl) were incubated in the same manner and the borate buffer solution (100 μl) was added followed by the measurement of the absorbance. A 0.1M phosphate buffer solution (pH 6.5, prepared from KH2 PO4 and K2 HPO4) was employed as the buffer for the enzyme reaction. The IC50 was determined in the same manner as employed in the case of α-glucosidase.

T1 sequence (P53341 whole entry): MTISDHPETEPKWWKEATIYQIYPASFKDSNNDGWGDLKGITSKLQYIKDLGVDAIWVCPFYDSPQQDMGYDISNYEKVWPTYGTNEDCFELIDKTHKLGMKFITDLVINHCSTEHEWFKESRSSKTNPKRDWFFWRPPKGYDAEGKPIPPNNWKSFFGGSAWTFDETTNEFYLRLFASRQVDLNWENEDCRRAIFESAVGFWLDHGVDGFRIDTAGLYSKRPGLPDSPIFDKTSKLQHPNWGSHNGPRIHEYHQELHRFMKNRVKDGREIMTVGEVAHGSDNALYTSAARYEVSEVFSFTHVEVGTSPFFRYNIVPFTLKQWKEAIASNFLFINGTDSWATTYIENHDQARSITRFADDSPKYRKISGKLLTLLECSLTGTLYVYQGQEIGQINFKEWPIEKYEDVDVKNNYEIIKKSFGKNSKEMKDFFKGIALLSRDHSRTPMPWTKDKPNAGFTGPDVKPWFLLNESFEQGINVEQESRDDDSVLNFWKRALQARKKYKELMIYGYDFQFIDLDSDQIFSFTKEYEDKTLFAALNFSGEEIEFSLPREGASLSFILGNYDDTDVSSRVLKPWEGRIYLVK

For `OC[C@@]12OC(Nc3ccccc3)=N[C@@H]1[C@H](O)[C@@H](O)[C@@H]2O` [Compound 1-2L, (1S,5R,6S,7R,8S)-1-hydroxymethyl-3-phenylamino-2-oxa-4-azabicyclo[3.3.0]oct-3-ene-6,7,8-triol], the “inhibitory activity against α-glucosidase (in words)” value [1] was “remarkably strong inhibitory activities”, the IC50 ([2]; pH 5.0, 37° C., 45 minutes) was greater than 300 µM and the “inhibitory activity against β-glucosidase (in words)” value ([2]; summary of Table 1) was “weak inhibitory activities”. The IC50 [3] was greater than 300 µM.
